Data on 29 compounds can be found in patent US8178551B2 (Green Cross Corporation, priority 2007, dated 2012).

Where a name gives a salt, the structure may show the parent alone.

The first series has as its system MPTP-induced Parkinson's disease animal model.
Test: not given
The conditions noted are these: daily injections, literature; cited from earlier work.
On to `Oc1ccc2c(c1)[C@@]13CCCC[C@H]1[C@@H](C2)NCC3` [HM, (+)-3-hydroxymorphinan], for which the “neuroprotective property in MPTP models (DA neurons in substantia nigra pars compacta, striatal DA levels)” value is “dopamine (DA) neurons in substantia nigra pars compacta have been protected and DA levels in striatum has been restored”.

Test system in another series: not listed separately
In words: Drug transport assay with MDCK monolayers (apparent permeability, Papp). The format is in vitro ADME. The conditions noted are these: dog, MDCK, apical to basolateral, 37° C. How it is done: (§1) Experiment 1. Permeability Measurement by Performing a Drug Transport Assay with MDCK Monolayers
(§2) (+)-3-HM was dissolved in DMSO at 10 mM and stored at 4° C. MDCK cells were obtained from the ATCC (American Type Culture Collection, CCL-34). MDCK cells were maintained in DMEM (Dulbecco's MEM with high glucose) containing 1×NEAA (Non-essential amino acids), 10 mM HEPES, 100 units penicillin, 0.1 mg/ml streptomycin and 8% FBS. The cells were cultivated in T-75 flasks in a cell culture incubator at 37° C. MDCK cells were passaged twice per week. When the cells were 90% confluence, the cells were plated at 1×10^5 cells/well in transwell. The cells were fed with fresh medium every other day. The Cells were grown to confluence on the transwell for 5 days. When the cells have reached confluence and are differentiated, they are ready to be used for transport studies. The TEER (Transepithelial electrical resistance) of each well was measured by Millicell-ERS system ohm meter. The electrode was immersed in 70% ethanol and PBS for 15 minutes. […] MDCK monolayers with TEER values >400Ω were used. After the each well was washed by using sterile HBSS (hank's buffered solution) and (+)-3-HM was diluted 100-fold in HBSS, the apical wells were filled with 200 ul of the test compounds. The basolateral wells were filled with 1 ml of HBSS buffer. Only 0.1% DMSO treated wells prepared to adjust for analysis. The cells were incubated at 37° C. for 1 hour. At the end of the transport period, the result samples were removed from the apical (150 ul) and basolateral (900 ul) wells. The representative compounds of Examples were conducted in same conditions.
(§3) Experiment 2. The HPLC Analysis and the Calculation of Papp
(§4) HPLC analyses were performed using a WATERS HPLC system. A ZORBAX Eclipse XDB-C18 (4.6×250 mm, 5 μm particle size) was used. The optimal operating conditions are as followed; Mobile phase A is composed of distilled water-acetonitrile (ACN) (9:1, v/v) with 0.1% trifluoroacetic acid (TFA), and mobile phase B is 90% acetonitrile with 0.1% TFA. All buffers were used after the 0.45 μm filtration.
(§5) The UV detection was performed at 280 nm or the fluorescence detection was performed at Excitation in 228 nm and Emission in 330 nm.
(§6) The concentration of A and B buffer was performed by the gradient method and the total analysis time was 38 min. The optimal operating conditions: elution gradient 0-10 min (10-50%), 10-20 min (50-90%), 20-25 min (90%), 25-27 min (90-10%), 27-38 min (10%). After the analysis of HPLC, the percentage of area of (+)-3-HM and the compound of Example 2 were calculated by remained concentration (μg/ml).
(§7) The apparent permeability coefficients (Papp), expressed in nm/sec, were calculated by the following equation: Permeability (Papp)=(Receiver Volume×Receiver Conc.)/(Filter surface area×Reaction Time×donor Conc.)×10^7.
As to `CCC(CC)C(=O)OCOc1ccc2c(c1)[C@]13CCCC[C@@H]1[C@H](C2)NCC3` [Example 54, (+)-(Morphinan-3-yloxy)methyl 2-ethylbutanoate TFA], the Papp A→B at 1 h, 100 µM worked out at 28.9 ×10⁻⁶ cm/s.

Consider `CC(C)CC(=O)OCOc1ccc2c(c1)[C@]13CCCC[C@@H]1[C@H](C2)NCC3` [Example 70, (+)-(Morphinan-3-yloxy)methyl 3-methylbutanoate TFA], for which the Papp A→B at 1 h, 100 µM came to 16.6 ×10⁻⁶ cm/s.

Consider `Oc1ccc2c(c1)[C@@]13CCCC[C@H]1[C@@H](C2)NCC3` [HM, (+)-3-hydroxymorphinan], for which the Papp A→B at 1 h, 100 µM is 3.33 ×10⁻⁶ cm/s.

On to `O=C(OCOc1ccc2c(c1)[C@]13CCCC[C@@H]1[C@H](C2)NCC3)OCC1CCC1` [Example 17, (+)-Cyclobutylmethyl(morphinan-3-yloxy)methyl carbonate TFA], for which the Papp A→B at 1 h, 100 µM was found to be 22.7 ×10⁻⁶ cm/s.

As for `CC(Cc1ccccc1)OC(=O)OCOc1ccc2c(c1)[C@]13CCCC[C@@H]1[C@H](C2)NCC3` (stereo partly drawn) [Example 31, (+)-(Morphinan-3-yloxy)methyl 1-phenylpropan-2-yl carbonate TFA], the Papp A→B at 1 h, 100 µM was 22.3 ×10⁻⁶ cm/s.

For the compound `CCC(C(=O)OCOc1ccc2c(c1)[C@]13CCCC[C@@H]1[C@H](C2)NCC3)c1ccccc1` (stereo partly drawn) [Example 72, (+)-(Morphinan-3-yloxy)methyl 2-phenylbutanoate TFA], the apical-to-basolateral permeability (Papp A→B) at 1 h, 100 µM stood at 13.1 ×10⁻⁶ cm/s.

With `O=C(OCOc1ccc2c(c1)[C@]13CCCC[C@@H]1[C@H](C2)NCC3)OC1CCCCCC1` [Example 27, TFA], the Papp A→B at 1 h, 100 µM was determined as 23.4 ×10⁻⁶ cm/s.

Consider `CCCCC(CC)C(=O)OCOc1ccc2c(c1)[C@]13CCCC[C@@H]1[C@H](C2)NCC3` (stereo partly drawn) [Example 60, (+)-(Morphinan-3-yloxy)methyl 2-ethylhexanoate TFA], for which the Papp A→B at 1 h, 100 µM was found to be 20.2 ×10⁻⁶ cm/s.

Turning to `O=C(OCOc1ccc2c(c1)[C@]13CCCC[C@@H]1[C@H](C2)NCC3)OCC1CCCCC1` [Example 9, (+)-Cyclohexylmethyl(morphinan-3-yloxy)methyl carbonate], the Papp A→B at 1 h, 100 µM was determined as 48.7 ×10⁻⁶ cm/s.

For `O=C(OCOc1ccc2c(c1)[C@]13CCCC[C@@H]1[C@H](C2)NCC3)OCC1CC1` [Example 4, (+)-Cyclopropylmethyl(morphinan-3-yloxy)methyl carbonate], the Papp A→B at 1 h, 100 µM was found to be 15.3 ×10⁻⁶ cm/s.

`O=C(OCOc1ccc2c(c1)[C@]13CCCC[C@@H]1[C@H](C2)NCC3)C1CC1` [Example 68, (+)-(Morphinan-3-yloxy)methyl cyclopropanecarboxylate TFA]: the Papp A→B at 1 h, 100 µM stood at 10.1 ×10⁻⁶ cm/s.

On to `CC(C)(C)C(=O)OCOc1ccc2c(c1)[C@]13CCCC[C@@H]1[C@H](C2)NCC3` [Example 105, (+)-(Morphinan-3-yloxy)methyl pivalate salicylic acid], for which the Papp A→B at 1 h, 100 µM worked out at 20.3 ×10⁻⁶ cm/s.

On to `CC(C)C(=O)OCOc1ccc2c(c1)[C@]13CCCC[C@@H]1[C@H](C2)NCC3` [Example 44, (+)-(Morphinan-3-yloxy)methyl isobutyrate], for which the Papp A→B at 1 h, 100 µM was found to be 21.2 ×10⁻⁶ cm/s.

Regarding `O=C(OCOc1ccc2c(c1)[C@]13CCCC[C@@H]1[C@H](C2)NCC3)OC1CCC1` [Example 37, (+)-Cyclobutyl(morphinan-3-yloxy)methyl carbonate TFA], the Papp A→B at 1 h, 100 µM came out at 13.6 ×10⁻⁶ cm/s.

Turning to `CCC(C)C(=O)OCOc1ccc2c(c1)[C@]13CCCC[C@@H]1[C@H](C2)NCC3` (stereo partly drawn) [Example 66, (+)-(Morphinan-3-yloxy)methyl 2-methylbutanoate TFA], the apical-to-basolateral permeability (Papp A→B) at 1 h, 100 µM is 16.2 ×10⁻⁶ cm/s.

As for `O=C(OCOc1ccc2c(c1)[C@]13CCCC[C@@H]1[C@H](C2)NCC3)C1CCCCC1` [Example 56, (+)-(Morphinan-3-yloxy)methyl cyclohexanoate TFA], the Papp A→B at 1 h, 100 µM amounted to 9.43 ×10⁻⁶ cm/s.

Take `O=C(OCOc1ccc2c(c1)[C@]13CCCC[C@@H]1[C@H](C2)NCC3)OC1CCCC1` [Example 6, (+)-Cyclopentyl(morphinan-3-yloxy)methyl carbonate]: the Papp A→B at 1 h, 100 µM is 20.6 ×10⁻⁶ cm/s.

For `CC(C)OC(=O)OCOc1ccc2c(c1)[C@]13CCCC[C@@H]1[C@H](C2)NCC3` [Example 2, (+)-Isopropyl(morphinan-3-yloxy)methyl carbonate], the apical-to-basolateral permeability (Papp A→B) at 1 h, 100 µM was 26.2 ×10⁻⁶ cm/s.

Take `O=C(OCOc1ccc2c(c1)[C@]13CCCC[C@@H]1[C@H](C2)NCC3)OC1CCCCC1` [Example 8, (+)-Cyclohexyl(morphinan-3-yloxy)methyl carbonate]: the Papp A→B at 1 h, 100 µM turned out to be 19.7 ×10⁻⁶ cm/s.

In the case of `O=C(OCOc1ccc2c(c1)[C@]13CCCC[C@@H]1[C@H](C2)NCC3)OCC1CCCC1` [Example 15, (+)-Cyclopentylmethyl(morphinan-3-yloxy)methyl carbonate TFA], the Papp A→B at 1 h, 100 µM turned out to be 33.7 ×10⁻⁶ cm/s.

Consider `CCCC(C)OC(=O)OCOc1ccc2c(c1)[C@]13CCCC[C@@H]1[C@H](C2)NCC3` (stereo partly drawn) [Example 41, (+)-(Morphinan-3-yloxy)methyl pentan-2-yl carbonate TFA], for which the Papp A→B at 1 h, 100 µM came to 23.1 ×10⁻⁶ cm/s.

In the case of `CCCOC(=O)OCOc1ccc2c(c1)[C@]13CCCC[C@@H]1[C@H](C2)NCC3` [Example 3, (+)-(Morphinan-3-yloxy)methyl propyl carbonate], the Papp A→B at 1 h, 100 µM worked out at 21.9 ×10⁻⁶ cm/s.

In the case of `O=C(OCOc1ccc2c(c1)[C@]13CCCC[C@@H]1[C@H](C2)NCC3)C1CCCC1` [Example 58, (+)-(Morphinan-3-yloxy)methyl cyclopentanoate TFA], the Papp A→B at 1 h, 100 µM was found to be 6.05 ×10⁻⁶ cm/s.

For the compound `CC(C)COC(=O)OCOc1ccc2c(c1)[C@]13CCCC[C@@H]1[C@H](C2)NCC3` [Example 23, (+)-Isobutyl(morphinan-3-yloxy)methyl carbonate TFA], the Papp A→B at 1 h, 100 µM came to 20.3 ×10⁻⁶ cm/s.

As to `CCC(C)OC(=O)OCOc1ccc2c(c1)[C@]13CCCC[C@@H]1[C@H](C2)NCC3` (single isomer, unassigned; (+)) [Example 25, (+)-sec-Butyl(morphinan-3-yloxy)methyl carbonate TFA], the apical-to-basolateral permeability (Papp A→B) at 1 h, 100 µM stood at 20.3 ×10⁻⁶ cm/s.

The subject of the next series is MDCK monolayers. Described as above. The conditions noted are these: apical to basolateral, 37° C., 1 hour. Type of series: in vitro ADME. The method, then: as §1, §2, §3, §4, §5, §6, §7
Take `CC(C)OC(=O)OCOc1ccc2c(c1)[C@]13CCCC[C@@H]1[C@H](C2)NCC3` [Example 80, (+)-Isopropyl(morphinan-3-yloxy)methyl carbonate L-(+)-tartaric acid]: the “Papp” value came out at 18.57 ×10⁻⁶ cm/s.

Another series concerns MDCK monolayers.
Test: not given
The conditions noted are these: MDCK Papp; cited from earlier work.
For the compound `CC(C(=O)O)c1cccc(C(=O)c2ccccc2)c1` (stereo not shown) [ketoprofen], the “Permeability values for known drugs” value was 20 ×10⁻⁶ cm/s.

For `CC(=O)Nc1ccc(O)cc1` [acetaminophen], the “Permeability values for known drugs” value was 35 ×10⁻⁶ cm/s.

Test system in the next series: not given
Test: not given
The conditions noted are these: known drugs; cited from earlier work.
As to `CC(=O)Nc1ccc(O)cc1` [acetaminophen], the human absorption is 94%.

On to `C[C@@H]1C[C@H]2[C@@H]3CCC4=CC(=O)C=C[C@]4(C)[C@@]3(F)[C@@H](O)C[C@]2(C)[C@@]1(O)C(=O)CO` [dexamethasone], for which the human absorption is listed as 98%.
